Patent US20240366728A1, “Treatment of Diabetes Mellitus” (Carmot Therapeutics Inc., priority 2023, published 2024)
Entries after “also recorded” stand apart in the source; their conditions may differ.

Key:
[1] = test system: lean C57BL/6J, GLP-1R+/+ and GLP-1R-/- mice; assay: single intracerebroventricular injection: food consumption and body weight; conditions: for food consumption and body weight (in words) / body weight decreased / body weight decreased compared to liraglutide / food consumption lowered compared to liraglutide / food consumption lowered compared to vehicle: ICV 0.025 nmol; for body weight decreased / body weight decreased compared to liraglutide / food consumption lowered compared to liraglutide / food consumption lowered compared to vehicle: lean C57BL/6J
GIPR+/+ and GIPR-/- mice = assay: intraperitoneal glucose tolerance test in GIPR+/+ and GIPR-/- mice; format: in vivo, mouse
[2] = test system: lean participants and participants with overweight/obesity; assay: Phase 1 first-in-human SAD/MAD study: safety and tolerability; format: in vivo; conditions: for safety and tolerability (in words): no up-titration
Text: This was a randomized, double-blind, placebo-controlled, dose escalation first-in-human (FIH) conducted from December 2018 to January 2020 at a study center in Victoria, Australia in accordance with principles of the Declaration of Helsinki (Ethical Principles for Medical Research Involving Human Subjects), and the NHMRC National Statement on Ethical Conduct in Human Research 2007 (updated 2018). (Registered on the Australian New Zealand Clinical Trials Registry [ANZCTR] under the identifier: ACTRN12618001988246).
Daily doses were given on Day 2 to Day 14. Cohort M1 was dosed with the highest dose level, determined based on the safety and PK data from the preceding Part 1 (SAD), and doses were decreased sequentially for Cohorts M2 and M3 (FIG. 46B).
Following study drug administration, Part 1 (SAD) participants underwent safety and other assessments on Day 3 and Day 8 (±1 day, outpatient) and were followed for at least 30 days after the last administered dose of study drug. Part 2 (MAD) participants underwent safety and other assessments and discharged in the absence of clinically significant safety signals, following completion of all Day 16 assessments. All participants were followed for at least 30 days after the last administered dose of study drug. Participants were follow-up for safety and other assessments on Day 21 (±2 days, outpatient) and Day 44 (±3 days, teleconference).
The primary endpoints were the incidence, nature and severity of AEs, safety laboratory analytes, vital signs, electrocardiograms (ECGs), and incidence of events of special interest (AESI).
Adverse events were coded using the Medical Dictionary for Regulatory Activities (MedDRAR Version 21.1). The number of participants experiencing treatment-emergent AEs (TEAEs) and number of individual TEAEs are summarized by treatment, SOC, and PT. TEAEs are also summarized by severity and by relationship to study drug. AESIs are listed and summarized by treatment group. Listings of AEs leading to discontinuation of the study, SAEs and deaths, are provided as applicable.

human GLP-1R = human GLP-1R (Homo sapiens, UniProt P43220); assay: cAMP accumulation, SNAP-human GLP-1R CHO-K1 cells
human GIPR = target: T1, human GIPR (Homo sapiens, UniProt P48546); assay: β-arrestin-2 recruitment (NanoBiT), human GIPR; format: cell-based; conditions: Table 17
T1 sequence (P48546 22-466): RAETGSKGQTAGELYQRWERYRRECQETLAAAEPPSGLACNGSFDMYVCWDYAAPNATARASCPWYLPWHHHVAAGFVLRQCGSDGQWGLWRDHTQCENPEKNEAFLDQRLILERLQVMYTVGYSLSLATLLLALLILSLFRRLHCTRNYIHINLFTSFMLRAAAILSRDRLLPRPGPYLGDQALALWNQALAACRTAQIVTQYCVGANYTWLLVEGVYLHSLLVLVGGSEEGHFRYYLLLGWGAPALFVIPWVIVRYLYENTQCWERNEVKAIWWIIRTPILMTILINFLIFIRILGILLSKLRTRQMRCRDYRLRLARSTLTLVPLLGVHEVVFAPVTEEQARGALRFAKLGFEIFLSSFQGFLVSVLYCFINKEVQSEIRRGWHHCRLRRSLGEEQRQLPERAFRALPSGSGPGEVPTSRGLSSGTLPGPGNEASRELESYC
Description: To measure GLP-1R and GIPR-mediated β-arrestin recruitment, we utilized Promega's NanoBiT® technology or NanoLuc® Binary Technology. The NanoLuc luciferase is split into two subunits, called LgBiT and SmBIT, which are expressed in HEK293 cells as fusion proteins at the C-terminus of GLP-IR or GIPR and the N-terminus of β-arrestin-2. […] The next day, the media was removed and replaced with […] 1:100 dilution of Nano-Glo® Live Cell Substrate in Opti-MEM™ and equilibrated to room temperature for ten minutes. Background luminescence was measured before 10 nL compound was added using an ECHO Acoustic Liquid Handler.
To measure GLP-1R and GIPR-mediated β-arrestin recruitment, Promega's NanoBiT® technology or NanoLuc® Binary Technology were utilized. Both allow for the detection and quantification of protein: protein interactions in live cells (Samms et al., Trends Endocrinol Metab 31:410-21). The NanoLuc luciferase is split into two subunits, called LgBiT and SmBIT, which are expressed in HEK293 cells as fusion proteins at the C-terminus of GLP-1R or GIPR and the N-terminus of β-arrestin-2, respectively. […] Background luminescence was measured before 10 nL compound was added using an ECHO Acoustic Liquid Handler. Luminescence was measured at 1.5-minute intervals for 30 minutes.

toxicology studies = conditions: highest dose tested

human GLP-1R, sequence (P43220 24-463): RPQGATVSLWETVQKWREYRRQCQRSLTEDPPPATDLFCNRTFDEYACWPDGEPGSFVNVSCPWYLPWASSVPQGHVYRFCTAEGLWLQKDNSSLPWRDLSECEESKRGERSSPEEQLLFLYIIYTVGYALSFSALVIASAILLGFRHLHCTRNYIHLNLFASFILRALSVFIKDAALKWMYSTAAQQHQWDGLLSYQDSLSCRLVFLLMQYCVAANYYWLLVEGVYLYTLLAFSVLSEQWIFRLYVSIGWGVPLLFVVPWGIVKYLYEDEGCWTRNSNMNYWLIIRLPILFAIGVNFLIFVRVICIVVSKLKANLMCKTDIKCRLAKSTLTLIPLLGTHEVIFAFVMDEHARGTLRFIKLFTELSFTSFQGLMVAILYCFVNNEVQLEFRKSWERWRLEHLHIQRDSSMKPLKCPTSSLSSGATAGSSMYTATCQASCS

CCCCCCCCCCCCCCCC(=O)N[C@@H](CCC(=O)NCCCC[C@H](NC(=O)[C@H](CO)NC(=O)[C@@H]1CCCN1C(=O)[C@@H]1CCCN1C(=O)[C@@H]1CCCN1C(=O)[C@H](C)NC(=O)CNC(=O)[C@H](CO)NC(=O)[C@H](CO)NC(=O)[C@@H]1CCCN1C(=O)CNC(=O)CNC(=O)[C@H](C)NC(=O)[C@H](CC(C)C)NC(=O)[C@H](CC(C)C)NC(=O)[C@H](Cc1c[nH]c2ccccc12)NC(=O)[C@H](CC(N)=O)NC(=O)[C@@H](NC(=O)[C@H](Cc1ccccc1)NC(=O)[C@H](CCC(=O)O)NC(=O)C(C)(C)NC(=O)[C@H](C)NC(=O)[C@H](C)NC(=O)[C@H](CCC(N)=O)NC(=O)[C@H](CCCCN)NC(=O)[C@H](CC(=O)O)NC(=O)[C@H](CC(C)C)NC(=O)[C@H](Cc1ccc(O)cc1)NC(=O)[C@@H](NC(=O)[C@H](CO)NC(=O)[C@H](Cc1ccc(O)cc1)NC(=O)[C@H](CC(=O)O)NC(=O)[C@H](CO)NC(=O)[C@@H](NC(=O)[C@H](Cc1ccccc1)NC(=O)[C@@H](NC(=O)CNC(=O)[C@H](CCC(=O)O)NC(=O)CSCC(=O)NCCN1C(=O)CSC1=O)[C@@H](C)O)[C@@H](C)O)[C@@H](C)CC)C(C)C)C(N)=O)C(=O)O [CT-859]
food consumption and body weight vs liraglutide after ICV (in words) [1]: decreased food consumption and body weight more than liraglutide | food consumption and body weight (in words) ([1]; GLP-1R+/+ mice): suppressed food consumption and reduced body weight | food consumption and body weight (in words) ([1]; GLP-1R-/- mice): no effect | food consumption, body weight, blood glucose after ICV (in words) ([1]; GLP-1R-KO mice, 0.025 and 1 nmol/kg): did not have any significant effects on food consumption, body weight, or blood glucose | food consumption, body weight after ICV (in words) ([1]; GLP-1R-WT mice, 0.025 and 1 nmol/kg, up to 72 h): dose dependent reduction of cumulative food consumption | body weight decreased ([1]; 24 hours): 9% | body weight decreased compared to liraglutide ([1]; 24 hours): 5% | food consumption lowered compared to liraglutide ([1]; 24 hours): 45% | food consumption lowered compared to vehicle ([1]; 24 hours): 63% | body weight decreased ([1]; 48 hours): 5% | body weight decreased compared to liraglutide ([1]; 48 hours): 5% | food consumption lowered compared to liraglutide ([1]; 48 hours): 27% | food consumption lowered compared to vehicle ([1]; 48 hours): 38% | food intake and body weight vs equal dose of liraglutide (in words) ([1]; wildtype mice, ICV […], up to 19 h): significantly greater reduction of food intake and body weight | reduction in GLUC AUC in GTT (GIPR+/+ and GIPR-/- mice; 20 nmol/kg, 4 h after dosing): 62% | glucose lowering (in words) (GIPR+/+ and GIPR-/- mice; 20 and 200 nmol/kg): efficacious at lowering glucose levels | duration of glucose lowering (in words) (GIPR+/+ and GIPR-/- mice; single 20 nmol/kg, ipGTT at 4, 24, 48 h): maintained its activity at 24 and 48 hours; also recorded: maintained significant reduction after 24 h and 48 h

CCCCCCCCCCCCCCCC(=O)N[C@@H](CCC(=O)NCCCC[C@H](NC(=O)[C@H](CO)NC(=O)[C@@H]1CCCN1C(=O)[C@@H]1CCCN1C(=O)[C@@H]1CCCN1C(=O)[C@H](C)NC(=O)CNC(=O)[C@H](CO)NC(=O)[C@H](CO)NC(=O)[C@@H]1CCCN1C(=O)CNC(=O)CNC(=O)[C@H](C)NC(=O)[C@H](CC(C)C)NC(=O)[C@H](CC(C)C)NC(=O)[C@H](Cc1c[nH]c2ccccc12)NC(=O)[C@H](CC(N)=O)NC(=O)[C@@H](NC(=O)[C@H](Cc1ccccc1)NC(=O)[C@H](CCC(=O)O)NC(=O)C(C)(C)NC(=O)[C@H](C)NC(=O)[C@H](C)NC(=O)[C@H](CCC(N)=O)NC(=O)[C@H](CCCCN)NC(=O)[C@H](CC(=O)O)NC(=O)[C@H](CC(C)C)NC(=O)[C@H](Cc1ccc(O)cc1)NC(=O)[C@@H](NC(=O)[C@H](CO)NC(=O)[C@H](Cc1ccc(O)cc1)NC(=O)[C@H](CC(=O)O)NC(=O)[C@H](CO)NC(=O)[C@@H](NC(=O)[C@H](Cc1ccccc1)NC(=O)[C@@H](NC(=O)CNC(=O)[C@H](CCC(=O)O)NC(=O)CSCC(=O)NCCN1CCCCC1=O)[C@@H](C)O)[C@@H](C)O)[C@@H](C)CC)C(C)C)C(N)=O)C(=O)O [CT-868]
participants reporting only nausea ([2]; MAD 0.75 mg): 2/6 | participants with abdominal pain ([2]; MAD 1.5 mg): 1/6 | participants with constipation ([2]; MAD 1.5 mg): 4/6 | participants with diarrhea ([2]; MAD 1.5 mg): 1/6 | participants with gastrointestinal symptoms ([2]; MAD 1.5 mg): 4/6 | participants with nausea ([2]; MAD 1.5 mg): 2/6 | participants with vomiting ([2]; MAD 1.5 mg): 2/6 | mild to moderate gastrointestinal symptoms (in words) ([2]; MAD 5.0 mg): reported by all six participants | drug withdrawal due to drug-related TEAEs (in words) ([2]; MAD 5.0 mg, mild nausea and vomiting): One participant | maximum tolerated single dose ([2]; SAD): 7.5 mg | participants with drug-related TEAEs ([2]; SAD 7.5 mg, two events of nausea and one of diarrhea): 50% | participants with gastrointestinal TEAEs ([2]; SAD 11.0 mg, twelve events, all drug-related): 100% | SAEs and drug-induced hypoglycemia (in words) ([2]; SAD and MAD phases): no serious adverse events (SAEs) or drug-induced hypoglycemia events | safety and tolerability (in words) ([2]; single doses up to 7.5 mg, up to 1.5 mg/day for 14 days): generally safe and well tolerated | safety and tolerability (in words) ([2]; up to 11 mg single dose, up to 5 mg/day for 14 days): safe and well tolerated | Emax (human GLP-1R; CHO-K1, read-out: hGLP-1R cAMP (-alb) % Emax): 92% | EC50 (human GLP-1R; potency activating cAMP at human GLP-1R, value of b126): ~0.17 nM | EC50 (human GIPR; read-out: hGIPR β-arrestin-2 EC50): 13 nM | Emax (human GIPR; read-out: hGIPR β-arrestin-2 % Emax): 1% | tolerability in toxicology studies (in words) (toxicology studies): well-tolerated at the highest dose tested
